Measured values as given in ChEMBL document CHEMBL1212795, “Transferable quinolone resistance in Vibrio cholerae” (2010).
≈ marks a conversion by molar mass, not a printed value.

Experiments:
Escherichia coli [1] = assay: Antibacterial activity against azide-resistant Escherichia coli J53 SXT1 transconjugant with qnrVC3 gene expressing Vibrio cholerae 59 strain; format: functional
Escherichia coli [2] = assay: Antibacterial activity against azide-resistant Escherichia coli J53 SXT2 transconjugant with qnrVC3 gene expressing Vibrio cholerae 59 strain
Escherichia coli [3] = assay: Antibacterial activity against azide-resistant Escherichia coli J53 TET1 transconjugant with qnrVC3 gene expressing Vibrio cholerae 59 strain; format: functional
Escherichia coli [4] = assay: Antibacterial activity against azide-resistant Escherichia coli J53 TET2 transconjugant with qnrVC3 gene expressing Vibrio cholerae 59 strain
Escherichia coli [5] = assay: Antibacterial activity against azide-resistant Escherichia coli J53 containing plasmid pQE60; format: functional
Escherichia coli [6] = assay: Antibacterial activity against azide resistant Escherichia coli J53 transformed with pQE60-qnrVC3 gene Vibrio cholerae 59 strain; format: functional
Escherichia coli [7] = assay: Antibacterial activity against azide-resistant Escherichia coli J53 SXT13-1 transconjugant with qnrVC3 gene expressing Vibrio cholerae 13 strain; format: functional

Molecule	MIC (Escherichia coli [1]) [µg/mL]	MIC (Escherichia coli [2]) [µg/mL]	MIC (Escherichia coli [3]) [µg/mL]	MIC (Escherichia coli [4]) [µg/mL]	MIC (Escherichia coli [5]) [µg/mL]	MIC (Escherichia coli [6]) [µg/mL]	MIC (Escherichia coli [7]) [µg/mL]
CC1(C)S[C@@H]2[C@H](NC(=O)[C@H](N)c3ccccc3)C(=O)N2[C@H]1C(=O)O [AMPICILLIN]	4 (≈ 11.4 µM)	4 (≈ 11.4 µM)	6 (≈ 17.2 µM)	4 (≈ 11.4 µM)	–	–	–
O=C(O)c1cn(C2CC2)c2cc(N3CCNCC3)c(F)cc2c1=O [CIPROFLOXACIN]	0.047 (≈ 0.142 µM)	–	–	0.064 (≈ 0.193 µM)	–	–	–
C[C@H]1COc2c(N3CCN(C)CC3)c(F)cc3c(=O)c(C(=O)O)cn1c23.C[C@H]1COc2c(N3CCN(C)CC3)c(F)cc3c(=O)c(C(=O)O)cn1c23.O [LEVOFLOXACIN]	0.19	0.032	0.032	0.125	0.032	0.19	–
CCn1cc(C(=O)O)c(=O)c2ccc(C)nc21 [NALIDIXIC ACID]	3 (≈ 12.9 µM)	3 (≈ 12.9 µM)	4 (≈ 17.2 µM)	4 (≈ 17.2 µM)	–	–	–
CN[C@@H]1[C@H](O[C@H]2[C@H](O[C@H]3[C@H](O)[C@@H](O)[C@H](N=C(N)N)[C@@H](O)[C@@H]3N=C(N)N)O[C@@H](C)[C@]2(O)C=O)O[C@@H](CO)[C@H](O)[C@H]1O [STREPTOMYCIN]	> 192	> 192	> 192	> 192	–	–	–
CN(C)[C@@H]1C(O)=C(C(N)=O)C(=O)[C@@]2(O)C(O)=C3C(=O)c4c(O)cccc4[C@@](C)(O)[C@H]3C[C@@H]12 [TETRACYCLINE]	64 (≈ 144 µM)	64 (≈ 144 µM)	64 (≈ 144 µM)	64 (≈ 144 µM)	–	–	1.5 (≈ 3.38 µM)
COc1cc(Cc2cnc(N)nc2N)cc(OC)c1OC [TRIMETHOPRIM]	> 32	> 32	> 32	> 32	–	–	–
GENTAMICIN	0.75	–	0.75	–	–	–	–
